From patent US9789202B2, “Method for treating cancer using an interferon alpha conjugate” (HANMI SCIENCE CO., LTD., priority 2011, dated 2017)

Experiments:
[1] = test system: human pancreatic cancer cells (BxPC3); test: In vivo anti-cancer effect in nude mice subcutaneously transplanted with human pancreatic cancer cells (BxPC3); parameters: species or system Athymic BALB/c nude mice; conditions: BxPC3 xenograft, 4 weeks; gemcitabine 30 mg/kg Q3D x 4 weeks i.v.; conjugate or PEG interferon alpha 30 mcg/kg QW x 4 weeks s.c.; combination at the same doses
Experimental: In order to measure the in vivo anti-cancer effect of the interferon alpha conjugate prepared in Example 1, changes in the tumor size were examined in the mice subcutaneously transplanted with human pancreatic cancer cells (BxPC3). 5-week old Athymic BALB/c nude mice were subcutaneously injected with 1×10^8/4 mL of BxPC3 cells cultured in vitro, and then cultured. […] After administration of the experimental substances, changes in the tumor size of each group were measured for 4 weeks, and tumor inhibition rate relative to the control group was determined (Table 3).

[2] = test system: human pancreatic cancer cells (Panc-1); test: In vivo anti-cancer effect in nude mice subcutaneously transplanted with human pancreatic cancer cells (Panc-1); parameters: species or system Athymic BALB/c nude mice; conditions: Panc-1 xenograft, measured for 4 weeks; gemcitabine 40 mg/kg Q3D x 3 weeks i.v.; conjugate or PEG interferon alpha 30 mcg/kg QW x 3 weeks s.c.; combination at the same doses
Experimental: 5-week old Athymic BALB/c nude mice were subcutaneously injected with 1×10^8/4 mL of Panc-1 cells cultured in vitro, and then cultured. Thereafter, the mice were subcutaneously transplanted with solid cancer having a size of 30 mm^2. Then, the mice were divided into 5 groups (G1, G2, G3, G4, G5) of six mice each according to the size of cancer subcutaneously transplanted.
Single administrations of a control group (Vehicle), gemcitabine (40 mg/kg, Q3D, 3 weeks, intravenous injection), PEG-modified interferon alpha (30 mcg/kg, QW×3 weeks, subcutaneous injection), and interferon alpha conjugate of the present invention (30 mcg/kg, QW, 3 weeks, subcutaneous injection), and co-administration of gemcitabine (40 mg/kg, Q3D, 3 weeks, intravenous injection) and interferon alpha conjugate of the present invention (30 mcg/kg, QW, 3 weeks, subcutaneous injection) to the groups were performed. After administration of the experimental substances for 3 weeks, changes in the tumor size of each group were measured for 4 weeks, and tumor inhibition rate relative to the control group was determined (Table 4).

[3] = test system: human pancreatic cancer cells (Miapaca-2); test: In vivo anti-cancer effect in nude mice subcutaneously transplanted with human pancreatic cancer cells (Miapaca-2); parameters: species or system Athymic BALB/c nude mice; conditions: Miapaca-2 xenograft, measured for 4 weeks; gemcitabine 40 mg/kg Q3D x 4 weeks i.v.; conjugate or PEG interferon alpha 30 mcg/kg QW x 4 weeks s.c.; combinations at the same doses
Experimental: 5-week old Athymic BALB/c nude mice were subcutaneously injected with 1×10^8/4 mL of Miapaca-2 cells cultured in vitro, and then cultured. Thereafter, the mice were subcutaneously transplanted with solid cancer having a size of 30 mm^2. Then, the mice were divided into 5 groups (G1, G2, G3, G4, G5) of seven mice each according to the size of cancer subcutaneously transplanted.
Single administrations of a control group (Vehicle), gemcitabine (40 mg/kg, Q3D, 3 weeks, intravenous injection), PEG-modified interferon alpha (30 mcg/kg, QW×4 weeks, subcutaneous injection), and interferon alpha conjugate of the present invention (30 mcg/kg, QW, 4 weeks, subcutaneous injection), and co-administration of gemcitabine (40 mg/kg, Q3D, 4 weeks, intravenous injection) and interferon alpha conjugate of the present invention (30 mcg/kg, QW, 4 weeks, subcutaneous injection) to the groups were performed. After administration of the experimental substances for 3 weeks, changes in the tumor size of each group were measured for 4 weeks, and tumor inhibition rate relative to the control group was determined (Table 5).

pancreatic cancer = conditions: cited from earlier work
Daudi cells = test: In vitro test on anti-proliferative efficacy in Daudi cells (CCK-8); assay type: cell-based, human; conditions: inhibition of Daudi cell proliferation, incubation 72 hours, CCK-8 absorbance at 450 nm
Experimental: Daudi cells were used, and RPMI1640 supplemented with 10% FBS and 10% PS was used as a culture medium and an experimental medium. Interferon alpha and interferon alpha conjugate of the present invention were diluted 4-fold with the experimental medium for 10 concentrations in 96-well round bottom plates. Each 50 μL of the diluted experimental medium was transferred to 96-well flat bottom plates. Daudi cells were centrifuged at 1000 rpm for 5 minutes, and then washed with 50 mL of PBS in a cornical tube. The cells were centrifuged at 1000 rpm for 5 minutes, and the experimental medium was added thereto, followed by counting the number of cells. Daudi cells were diluted to a concentration of 5×10^5 cell/mL, and then 100 μL was added to each well, followed by incubation at 37° C. for 72 hours. Then, 20 μL of CCK-8 was added to each well, and after 3 hours, absorbance was measured at 450 nm.
In vitro inhibitory effects of interferon alpha and interferon alpha conjugate of the present invention (long-acting interferon alpha conjugate) on cancer cell proliferation were examined by EC50 (Table 1, FIG. 1).

[4] = test system: human ovarian cancer cells (SK-OV-3); test: In vivo anti-cancer effect in nude mice subcutaneously transplanted with human ovarian cancer cells (SK-OV-3); parameters: species or system Athymic BALB/c nude mice; conditions: SK-OV-3 xenograft, 4 weeks, subcutaneous injection; interferon alpha 30 mcg/kg (Q1D*5)*4 weeks; PEG interferon alpha and conjugate 150 mcg/kg QW x 4 weeks
Experimental: In order to measure the in vivo anti-cancer effect of the interferon alpha conjugate prepared in Example 1, changes in the tumor size were examined in the mice subcutaneously transplanted with human ovarian cancer cells (SK-OV-3).
5-week old Athymic BALB/c nude mice were subcutaneously injected with 1×10^8/4 mL of SK-OV-3 cells cultured in vitro, and then cultured. Thereafter, the mice were subcutaneously transplanted with solid cancer having a size of 30 mm^2. Then, the mice were divided into 4 groups (G1, G2, G3, G4) of five mice each according to the size of cancer subcutaneously transplanted.
Single administrations of a control group (Vehicle), interferon alpha (30 mcg/kg, Q1D×5 times×4 weeks, subcutaneous injection), PEG-modified interferon alpha (150 mcg/kg, QW×4 weeks, subcutaneous injection), and interferon alpha conjugate of the present invention (150 mcg/kg, QW×4 weeks, subcutaneous injection) to the groups were performed. After administration of the experimental substances, changes in the tumor size of each group were measured for 4 weeks, and tumor inhibition rate relative to the control group was determined (Table 2).

| Compound | Tumor inhibition rate (%, relative to vehicle) [1] [%] | Tumor inhibition rate (%, relative to vehicle) [2] [%] | Tumor inhibition rate (%, relative to vehicle) [3] [%] | median overall survival (pancreatic cancer; advanced pancreatic cancer, single administration) [months] | 1-year survival rate of pancreatic cancer patients (pancreatic cancer; metastatic pancreatic cancer) [%] | EC50 (Daudi cells) [ng/mL] | Tumor inhibition rate (%, relative to vehicle) [4] [%] |
| --- | --- | --- | --- | --- | --- | --- | --- |
| Nc1ccn([C@@H]2O[C@H](CO)[C@@H](O)C2(F)F)c(=O)n1 [Gemcitabine, 2′-deoxy-2′,2′-difluoro cytidine] | 20 | 60 | 17 | 5.7 | 18 | – | – |
| Interferon alpha: interferon alpha prepared according to Korean Patent No. 10-0360594; human interferon alpha-2b | – | – | – | – | – | 0.0217 | 63.84 |
